Assay results from publication PMC5432616, “Oligomeric State and Thermal Stability of Apo- and Holo- Human Ornithine δ-Aminotransferase” (The Protein Journal, 2017).
Where a chain is given by its changes, count along the chain named.

How the values were obtained:
[1] = target: T1, hOAT (human ornithine δ-aminotransferase) (Homo sapiens, UniProt P04181); test: thermal denaturation followed by CD at […] nm, holo versus apo; assay type: binding; settings: 50 mM Hepes, pH 7.4, 0.5 M NaCl; tetrameric form; covalent (internal aldimine with Lys292)
T1 construct: gene OAT; untagged, pET43a, E. coli BL21(DE3)pLysS; DEAE and Superdex 200; tetramer in equilibrium with dimer, dimer is the functional unit
T1 sequence (P04181 26-439): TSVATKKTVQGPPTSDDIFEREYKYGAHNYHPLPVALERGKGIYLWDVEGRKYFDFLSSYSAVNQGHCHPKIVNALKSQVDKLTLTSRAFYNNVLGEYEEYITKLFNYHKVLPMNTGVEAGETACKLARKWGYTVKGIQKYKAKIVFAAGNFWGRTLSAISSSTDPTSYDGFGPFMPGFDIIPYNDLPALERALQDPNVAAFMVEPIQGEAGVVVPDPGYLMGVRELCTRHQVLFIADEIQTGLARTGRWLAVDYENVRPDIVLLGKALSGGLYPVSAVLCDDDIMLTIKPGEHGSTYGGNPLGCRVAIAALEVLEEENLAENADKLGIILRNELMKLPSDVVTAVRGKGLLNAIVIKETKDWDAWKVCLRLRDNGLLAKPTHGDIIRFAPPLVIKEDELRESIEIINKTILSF

[2] = target: T2, hOAT (human ornithine δ-aminotransferase) (Homo sapiens, UniProt P04181, R217A); test: quenching of intrinsic fluorescence of apoenzyme at […] nm; assay type: binding; settings: read-out: KD(PLP)
T2 construct: gene OAT; untagged, pET43a, E. coli BL21(DE3)pLysS; DEAE and Superdex 200; tetramer in equilibrium with dimer, dimer is the functional unit
T2 sequence (P04181 26-439 R217A): T1 sequence (P04181 26-439) with R192A

dTm (apparent Tm, holo minus apo) [1]: ~ 21 °C
Kd [2]: 280 ± 300 nM
Compound: Cc1ncc(COP(=O)(O)O)c(C=O)c1O [PLP]
